The test system of this test is hamsters fed a high cholesterol diet. Put plainly: Measurement of lipid lowering effect in hamsters fed a high cholesterol diet. The settings on record: Mesocricetus auratus, po, 168 h, gavage once daily, 7 days. Format: in vivo, Male Golden Syrian hamsters. The method, then: Male Golden Syrian hamsters are divided into groups each consisting of 6 animals and fed a controlled high cholesterol diet (CE-2 containing 0.5% cholesterol; CLEA Japan, Inc.) for 28 days at most. From the start of feeding of the high cholesterol diet, the test compounds are administered by gavage once daily. For the administration, 0.2 mL of corn oil alone per 100 g (control group) or a solution (or suspension) of the test compound in corn oil at a dose of 0.01 to 10 mg/kg was given. At the same time, a group fed with a normal diet during the same study period is handled as a normal group. 4 hours after the last administration, whole blood is collected from the abdominal aorta under light anesthesia with ether and serum is separated from the blood. Further, livers are harvested, wet liver weights are measured, and part (about 0.5 g) of the harvested livers are extracted and weighed. 2-propanol in an amount 4 times the weight of the extracted livers are added, the resulted mixtures are homogenized, and the centrifuged supernatant are recovered and used as liver-derived samples.
Serum and liver TC concentrations are determined by an enzyme method using L-type Wako CHO•H (Wako Pure Chemical Industries Ltd.) or Cholestest CHO (Daiichi Pure Chemicals Co., Ltd.). Serum TG concentrations are determined by an enzyme method using L-type Wako TG•H (Wako Pure Chemical Industries Ltd.) or Autosera S TG-N (Daiichi Pure Chemicals Co., Ltd.) and a free glycerine elimination method. LDL-C concentrations are determined by a direct method using L-type Wako LDL-C•M (Wako Pure Chemical Industries Ltd.) or Cholestest LDL (Daiichi Pure Chemicals Co., Ltd.). Human serum was commonly used as a sample for the calibration curve for determinations of serum and liver TC concentrations, serum TG concentration, and serum LDL-C concentration. The effect of the test compound is shown by a suppression rate (%) of an increase in serum TC concentration due to feeding of the high cholesterol diet, a serum TG lowering rate (%), a suppression rate (%) of an increase in serum LDL-C concentration due to feeding of the high cholesterol diet, and a suppression rate (%) of an increase in liver TC concentration due to feeding of the high cholesterol diet calculated in accordance with the following equations.
In the Equation 2, A is the control group, B is the test compound group, and C is the normal group.
In the Equation 3, A is the control group, B is the test compound group, and C is the normal group.
In the Equation 4, A is the control group, B is the test compound group, and C is the normal group.
In the Equation 5, A is the control group, and B is the test compound group.
The following results were obtained from the study by this method on the effects of lowering serum TC, LDL-C, and TG, and liver TC in the hamsters fed with a high cholesterol diet which were given the test compounds for 7 days.
The compounds in which pyridyl of compound of example 51 and 55 was exchanged for phenyl, were used as comparative compound 1 and 2, respectively. In the same method as Example 112, the suppression rate (%) of an increase in serum TC concentration of comparative compound 1 and 2 were calculated.

[1] abbreviates: read-out: liver TC lowering effect (suppression rate of an increase in liver TC concentration).
Setting [2] is: read-out: serum LDL-C lowering effect (suppression rate of an increase in serum LDL-C concentration).
Where [3] appears, read: read-out: serum TC lowering effect (suppression rate of an increase in serum TC concentration).
[4] abbreviates: read-out: serum TG lowering effect (serum TG lowering rate).

Molecules are shown by their SMILES. Like-named read-outs stand apart in the source and are kept apart here.

Consider `O=C1[C@H](SC[C@H](O)c2ccc(F)cc2F)[C@@H](c2ccc(O)cc2)N1c1ccc(-c2cccnc2)cc1` [Example 30, (3R,4R)-3-[(2R)-2-(2,4-difluorophenyl)-2-hydroxyethylthio]-4-(4-hydroxyphenyl)-1-[4-(pyridin-3-yl)phenyl]azetidin-2-one], for which the inhibition in vivo at 0.1 mg/kg is, setting by setting: under setting [1], at least 50%; under setting [2], at least 50%; under setting [3], at least 50%. Turning to `O=C(CS[C@H]1C(=O)N(c2ccc(-c3cccnc3)cc2)[C@@H]1c1ccc(O)cc1)c1ccc(F)cc1` [Example 27, (3R,4R)-3-[2-(4-fluorophenyl)-2-oxoethylthio]-4-(4-hydroxyphenyl)-1-[4-(pyridin-3-yl)phenyl]azetidin-2-one], the inhibition in vivo at 0.1 mg/kg was at least 50% under setting [2] and at least 50% under setting [3].

As for `COc1cc(Cl)ccc1[C@@H](O)CS[C@H]1C(=O)N(c2ccc(-c3cccnc3)cc2)[C@@H]1c1ccc(O)cc1` [Example 101, (3R,4R)-3-[(2R)-2-(4-chloro-2-methoxyphenyl)-2-hydroxyethylthio]-4-(4-hydroxyphenyl)-1-[4-(pyridin-3-yl)phenyl]azetidin-2-one], the inhibition in vivo at 0.1 mg/kg runs as follows: under setting [2], at least 50%; under setting [3], at least 50%.

Consider `Cc1ccc(-c2ccc(N3C(=O)[C@H](SC[C@H](O)c4ccc(F)cc4)[C@H]3c3ccc(O)cc3O)cc2)cn1` [Example 95, (3R,4R)-3-[(2R)-2-(4-fluorophenyl)-2-hydroxyethylthio]-4-(2,4-dihydroxyphenyl)-1-[4-(6-methylpyridin-3-yl)phenyl]azetidin-2-one], for which the inhibition in vivo at 0.01 mg/kg under setting [2] was at least 30% and the inhibition in vivo at 0.01 mg/kg under setting [3] is at least 30%. With `O=C1[C@H](SC[C@H](O)c2ccc(Cl)s2)[C@@H](c2ccc(O)cc2)N1c1ccc(-c2cccnc2)cc1` [Example 46, (3R,4R)-3-[(2S)-2-(5-chlorothiophen-2-yl)-2-hydroxyethylthio]-4-(4-hydroxyphenyl)-1-[4-(pyridin-3-yl)phenyl]azetidin-2-one], the inhibition in vivo at 0.1 mg/kg under setting [4] was at least 20%.

With `Cc1cc(O)ccc1[C@@H]1[C@@H](SC[C@H](O)c2ccc(F)cc2)C(=O)N1c1ccc(-c2cncnc2)cc1` [Example 100, (3R,4R)-3-[(2R)-2-(4-fluorophenyl)-2-hydroxyethylthio]-4-(4-hydroxy-2-methylphenyl)-1-[4-(pyrimidin-5-yl)phenyl]azetidin-2-one], the inhibition in vivo at 0.1 mg/kg by setting is: under setting [2], at least 50%; under setting [3], at least 50%; under setting [4], at least 20%.

Consider `O=Cc1cc(-c2ccc(N3C(=O)[C@H](SC[C@H](O)c4ccc(F)cc4)[C@H]3c3ccc(O)cc3)cc2)cs1` [Example 67, 4-(4-{(3R,4R)-3-[(2R)-2-(4-fluorophenyl)-2-hydroxyethylthio]-4-(4-hydroxyphenyl)-2-oxoazetidinyl}phenyl)thiophene-2-carbaldehyde], for which, under setting [4], the inhibition in vivo at 0.1 mg/kg was at least 20%. On to `O=C1[C@H](SC[C@H](O)c2ccc(F)cc2)[C@@H](c2ccc(O)cc2)N1c1ccc(-c2cnccn2)cc1` [Example 53, (3R,4R)-3-[(2R)-2-(4-fluorophenyl)-2-hydroxyethylthio]-4-(4-hydroxyphenyl)-1-[4-(pyrazin-2-yl)phenyl]azetidin-2-one], for which the inhibition in vivo at 0.1 mg/kg under setting [2] was at least 50%. As for `O=C1[C@H](SC[C@H](O)c2ccc(F)cc2)[C@@H](c2ccc(O)cc2O)N1c1ccc(-c2cncc(C(F)(F)F)c2)cc1` [Example 76, (3R,4R)-3-[(2R)-2-(4-fluorophenyl)-2-hydroxyethylthio]-4-(2,4-dihydroxyphenyl)-1-[4-(5-trifluoromethylpyridin-3-yl)phenyl]azetidin-2-one], under setting [3], the inhibition in vivo at 0.01 mg/kg was at least 30%. In the case of `CCNC(=O)c1cncc(-c2ccc(N3C(=O)[C@H](SC[C@H](O)c4ccc(F)cc4)[C@H]3c3ccc(O)cc3)cc2)c1` [Example 49, N-ethyl-5-(4-{(3R,4R)-3-[(2R)-2-(4-fluorophenyl)-2-hydroxyethylthio]-4-(4-hydroxyphenyl)-2-oxoazetidinyl}phenyl)pyridine-3-carboxamide], the inhibition in vivo at 0.1 mg/kg by setting is: under setting [2], at least 50%; under setting [3], at least 50%; under setting [4], at least 20%.

For the compound `O=C1[C@H](SC[C@H](O)c2ccc(F)cc2)[C@@H](c2ccc(O)c([N+](=O)[O-])c2)N1c1ccc(-c2cccnc2)cc1` [Example 42, (3R,4R)-3-[(2R)-2-(4-fluorophenyl)-2-hydroxyethylthio]-4-(4-hydroxy-3-nitrophenyl)-1-[4-(pyridin-3-yl)phenyl]azetidin-2-one], the inhibition in vivo at 0.1 mg/kg under setting [2] was at least 50%. As for `O=C1[C@H](SC[C@H](O)c2ccc(Cl)cc2)[C@@H](c2ccc(O)cc2)N1c1ccc(-c2cnccn2)cc1` [Example 104, (3R,4R)-3-[(2R)-2-(4-chlorophenyl)-2-hydroxyethylthio]-4-(4-hydroxyphenyl)-1-[4-(pyrazin-2-yl)phenyl]azetidin-2-one], the inhibition in vivo at 0.01 mg/kg under setting [2] is at least 30% and the inhibition in vivo at 0.01 mg/kg under setting [3] is at least 30%. For the same compound, the inhibition in vivo at 0.1 mg/kg under setting [1] is at least 50%. As for `O=C1[C@H](SC[C@H](O)c2ccc(Cl)c(F)c2)[C@@H](c2ccc(O)cc2)N1c1ccc(-c2cncc(F)c2)cc1` [Example 82, (3R,4R)-3-[(2R)-2-(4-chloro-3-fluorophenyl)-2-hydroxyethylthio]-1-[4-(5-fluoropyridin-3-yl)phenyl]-4-(4-hydroxyphenyl)azetidin-2-one], the inhibition in vivo at 0.1 mg/kg runs as follows: under setting [2], at least 50%; under setting [3], at least 50%.

Regarding `O=C1[C@H](SC[C@H](O)c2ccc(Cl)cc2)[C@@H](c2ccc(O)cc2O)N1c1ccc(-c2cncc(Cl)c2)cc1` [Example 96, (3R,4R)-3-[(2R)-2-(4-chlorophenyl)-2-hydroxyethylthio]-4-(2,4-dihydroxyphenyl)-1-[4-(5-chloropyridin-3-yl)phenyl]azetidin-2-one], under setting [1], the inhibition in vivo at 0.01 mg/kg is at least 30%. On to `COc1ccncc1-c1ccc(N2C(=O)[C@H](SC[C@H](O)c3ccc(F)cc3)[C@H]2c2ccc(O)cc2O)cc1` [Example 64, (3R,4R)-3-[(2R)-2-(4-fluorophenyl)-2-hydroxyethylthio]-4-(2,4-dihydroxyphenyl)-1-[4-(4-methoxypyridin-3-yl)phenyl]azetidin-2-one], for which the inhibition in vivo at 0.1 mg/kg is, setting by setting: under setting [2], at least 50%; under setting [3], at least 50%. In the case of `O=C1[C@H](SC[C@H](O)c2ccc(F)cc2)[C@@H](c2ccc(O)cc2)N1c1ccc(-c2cncnc2)cc1` [Example 10, (3R,4R)-3-[(2R)-2-(4-fluorophenyl)-2-hydroxyethylthio]-4-(4-hydroxyphenyl)-1-[4-(pyrimidin-5-yl)phenyl]azetidin-2-one], the inhibition in vivo at 0.1 mg/kg by setting is: under setting [3], at least 50%; under setting [4], at least 20%. Turning to `O=C1[C@H](SC[C@H](O)c2ccc(F)cc2)[C@@H](c2ccc(O)cc2)N1c1ccc(-c2ccc(C(F)(F)F)cn2)cc1` [Example 3, (3R,4R)-3-[(2R)-2-(4-fluorophenyl)-2-hydroxyethylthio]-4-(4-hydroxyphenyl)-1-[4-(5-trifluoromethylpyridin-2-yl)phenyl]azetidin-2-one], the inhibition in vivo at 0.1 mg/kg under setting [4] was at least 20%. With `Cc1cncc(-c2ccc(N3C(=O)[C@H](SC[C@H](O)c4ccc(F)cc4)[C@H]3c3ccc(O)cc3O)cc2)c1` [Example 93, (3R,4R)-3-[(2R)-2-(4-fluorophenyl)-2-hydroxyethylthio]-4-(2,4-dihydroxyphenyl)-1-[4-(5-methylpyridin-3-yl)phenyl]azetidin-2-one], the inhibition in vivo at 0.01 mg/kg is, setting by setting: under setting [2], at least 30%; under setting [3], at least 30%. Moreover, the inhibition in vivo at 0.1 mg/kg under setting [4] is at least 20%.

The record behind these values is patent US20100125059A1, “1-BIARYLAZETIDINONE DERIVATIVE” (Teijin Pharma Limited, priority 2007, published 2010).
